pKi: −log10 of the molar value.
How the values were obtained:
D(3) dopamine receptor = D(3) dopamine receptor (Homo sapiens, UniProt P35462); assay: GPCRScan assay: inhibition of D3; set-up: radioligand conc. used [nm] 0.5 – 1.8, parental cells HEKT
[1] = target: Sodium-dependent dopamine transporter (Homo sapiens, UniProt Q01959); assay: GPCRScan assay: inhibition of DAT; set-up: radioligand conc. used [nm] 3.6 – 16.0, parental cells stable HEK
[2] = target: Alpha-1D adrenergic receptor (Homo sapiens, UniProt P25100); assay: GPCRScan assay: inhibition of Alpha1D; set-up: radioligand conc. used [nm] 0.3 – 1.0, parental cells stable
RS4-11 = assay: CellTiter-Glo Luminescent Cell Viability Assay with RS4-11 cells (BCL-2 dependent cell line); assay type: functional, cell-based; settings: Homo sapiens
[3] = target: Adenosine receptor A2a (Homo sapiens) (UniProt P29274); assay: A2A (h) Eurofins-Cerep binding assay; set-up: ligand concentration 6 nM; settings: filed as agonist, Compound concentration 10.0 uM
[4] = target: Tumor necrosis factor (Homo sapiens) (UniProt P01375); assay: TNF-alpha (h) Eurofins-Cerep binding assay; set-up: ligand concentration 0.1 nM; settings: filed as agonist, Compound concentration 10.0 uM
Sequence of Tumor necrosis factor (Homo sapiens) (P01375 whole entry): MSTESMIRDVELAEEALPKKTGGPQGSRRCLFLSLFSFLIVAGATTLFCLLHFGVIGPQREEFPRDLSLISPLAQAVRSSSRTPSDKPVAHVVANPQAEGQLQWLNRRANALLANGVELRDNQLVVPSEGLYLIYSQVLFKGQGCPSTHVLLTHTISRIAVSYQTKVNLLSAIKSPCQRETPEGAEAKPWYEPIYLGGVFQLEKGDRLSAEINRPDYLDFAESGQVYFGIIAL

[5] = target: Estrogen receptor (Homo sapiens) (UniProt P03372); assay: Estrogen ER alpha (h) Eurofins-Cerep binding assay; set-up: ligand concentration 0.5 nM; settings: filed as agonist, Compound concentration 10.0 uM
[6] = target: Sodium-dependent noradrenaline transporter (Homo sapiens) (UniProt P23975); assay: norepinephrine transporter (h) Eurofins-Cerep binding assay; set-up: ligand concentration 1 nM; settings: filed as antagonist, Compound concentration 10.0 uM
Sequence of Sodium-dependent noradrenaline transporter (Homo sapiens) (P23975 whole entry): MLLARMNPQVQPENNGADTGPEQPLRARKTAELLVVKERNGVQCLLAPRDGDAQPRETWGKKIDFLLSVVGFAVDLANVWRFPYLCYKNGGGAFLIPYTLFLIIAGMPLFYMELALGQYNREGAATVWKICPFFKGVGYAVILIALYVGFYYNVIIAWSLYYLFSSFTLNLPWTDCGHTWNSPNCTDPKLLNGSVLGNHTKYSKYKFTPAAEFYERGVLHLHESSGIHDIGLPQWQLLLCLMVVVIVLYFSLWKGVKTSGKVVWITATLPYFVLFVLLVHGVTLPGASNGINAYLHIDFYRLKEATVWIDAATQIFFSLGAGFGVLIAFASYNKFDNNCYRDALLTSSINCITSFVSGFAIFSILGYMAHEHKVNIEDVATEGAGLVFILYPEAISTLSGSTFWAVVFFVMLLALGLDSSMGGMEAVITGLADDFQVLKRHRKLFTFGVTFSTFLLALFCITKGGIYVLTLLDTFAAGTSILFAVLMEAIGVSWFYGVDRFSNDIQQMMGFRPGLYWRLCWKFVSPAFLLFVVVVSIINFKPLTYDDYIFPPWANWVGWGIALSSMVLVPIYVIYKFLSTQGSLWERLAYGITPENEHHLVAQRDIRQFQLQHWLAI

[7] = test system: Tyrosine-protein kinase ABL1 (Homo sapiens), P00519 [Q252H]; settings: Compound concentration 1000.0 nM
[8] = target: RAC-alpha serine/threonine-protein kinase (Homo sapiens) (UniProt P31749); settings: Compound concentration 1000.0 nM
[9] = target: RAC-gamma serine/threonine-protein kinase (Homo sapiens) (UniProt Q9Y243); settings: Compound concentration 1000.0 nM
[10] = target: Aurora kinase C (Homo sapiens) (UniProt Q9UQB9); settings: Compound concentration 1000.0 nM
[11] = target: Protein-tyrosine kinase 6 (Homo sapiens) (UniProt Q13882); settings: Compound concentration 1000.0 nM
[12] = target: Cyclin-dependent kinase 4 (Homo sapiens) (UniProt P11802); settings: Compound concentration 1000.0 nM
Sequence of Cyclin-dependent kinase 4 (Homo sapiens) (P11802 whole entry): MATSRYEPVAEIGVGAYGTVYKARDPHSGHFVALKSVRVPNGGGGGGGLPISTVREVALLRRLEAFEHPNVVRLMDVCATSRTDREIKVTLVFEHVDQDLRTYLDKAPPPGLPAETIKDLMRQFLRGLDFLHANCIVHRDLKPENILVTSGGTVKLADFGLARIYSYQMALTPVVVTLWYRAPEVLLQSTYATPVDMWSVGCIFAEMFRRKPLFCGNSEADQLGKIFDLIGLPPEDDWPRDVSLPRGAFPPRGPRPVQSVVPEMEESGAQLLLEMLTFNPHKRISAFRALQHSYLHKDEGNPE

[13] = target: Ephrin type-A receptor 2 (Homo sapiens) (UniProt P29317); settings: Compound concentration 1000.0 nM
[14] = target: Ephrin type-B receptor 1 (Homo sapiens) (UniProt P54762); settings: Compound concentration 1000.0 nM
[15] = target: Ephrin type-B receptor 2 (Homo sapiens) (UniProt P29323); settings: Compound concentration 1000.0 nM
[16] = target: Interleukin-1 receptor-associated kinase 1 (Homo sapiens) (UniProt P51617); settings: Compound concentration 1000.0 nM
Sequence of Interleukin-1 receptor-associated kinase 1 (Homo sapiens) (P51617 whole entry, looked up): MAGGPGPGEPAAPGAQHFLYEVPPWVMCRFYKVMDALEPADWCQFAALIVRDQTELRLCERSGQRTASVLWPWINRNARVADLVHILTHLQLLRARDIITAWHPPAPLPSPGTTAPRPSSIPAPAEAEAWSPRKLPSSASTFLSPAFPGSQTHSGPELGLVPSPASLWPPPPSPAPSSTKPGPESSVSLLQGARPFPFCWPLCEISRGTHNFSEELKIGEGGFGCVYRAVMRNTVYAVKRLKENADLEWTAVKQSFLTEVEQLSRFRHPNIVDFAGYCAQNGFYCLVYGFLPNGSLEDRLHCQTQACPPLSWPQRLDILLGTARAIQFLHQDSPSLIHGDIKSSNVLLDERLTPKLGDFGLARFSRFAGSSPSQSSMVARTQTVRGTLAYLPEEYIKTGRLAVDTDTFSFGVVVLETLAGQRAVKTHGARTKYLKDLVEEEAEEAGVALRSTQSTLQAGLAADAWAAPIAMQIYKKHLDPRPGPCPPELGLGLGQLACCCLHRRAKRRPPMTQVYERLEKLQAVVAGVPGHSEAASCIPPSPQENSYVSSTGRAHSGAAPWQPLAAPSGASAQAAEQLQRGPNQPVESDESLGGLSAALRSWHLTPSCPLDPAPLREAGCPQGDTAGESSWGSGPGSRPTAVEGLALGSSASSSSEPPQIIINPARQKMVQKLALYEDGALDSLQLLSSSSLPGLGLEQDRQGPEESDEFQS

[17] = target: Mast/stem cell growth factor receptor Kit (Homo sapiens) (UniProt P10721); settings: Compound concentration 1000.0 nM
[18] = target: Mitogen-activated protein kinase kinase kinase 15 (Homo sapiens) (UniProt Q6ZN16); settings: Compound concentration 1000.0 nM
[19] = target: Dual specificity mitogen-activated protein kinase kinase 6 (Homo sapiens) (UniProt P52564); settings: Compound concentration 1000.0 nM
[20] = test system: Hepatocyte growth factor receptor (Homo sapiens), P08581 [Y1235D]; settings: Compound concentration 1000.0 nM
[21] = target: Misshapen-like kinase 1 (Homo sapiens) (UniProt Q8N4C8); settings: Compound concentration 1000.0 nM
[22] = target: Serine/threonine-protein kinase Nek1 (Homo sapiens) (UniProt Q96PY6); settings: Compound concentration 1000.0 nM
[23] = target: Serine/threonine-protein kinase Nek7 (Homo sapiens) (UniProt Q8TDX7); settings: Compound concentration 1000.0 nM
[24] = test system: Phosphatidylinositol 4,5-bisphosphate 3-kinase catalytic subunit alpha isoform (Homo sapiens), P42336 [E545A]; settings: Compound concentration 1000.0 nM
[25] = target: Protein kinase C theta type (Homo sapiens) (UniProt Q04759); settings: Compound concentration 1000.0 nM
[26] = target: Protein-tyrosine kinase 2-beta (Homo sapiens) (UniProt Q14289); settings: Compound concentration 1000.0 nM
Sequence of Protein-tyrosine kinase 2-beta (Homo sapiens) (Q14289 whole entry, looked up): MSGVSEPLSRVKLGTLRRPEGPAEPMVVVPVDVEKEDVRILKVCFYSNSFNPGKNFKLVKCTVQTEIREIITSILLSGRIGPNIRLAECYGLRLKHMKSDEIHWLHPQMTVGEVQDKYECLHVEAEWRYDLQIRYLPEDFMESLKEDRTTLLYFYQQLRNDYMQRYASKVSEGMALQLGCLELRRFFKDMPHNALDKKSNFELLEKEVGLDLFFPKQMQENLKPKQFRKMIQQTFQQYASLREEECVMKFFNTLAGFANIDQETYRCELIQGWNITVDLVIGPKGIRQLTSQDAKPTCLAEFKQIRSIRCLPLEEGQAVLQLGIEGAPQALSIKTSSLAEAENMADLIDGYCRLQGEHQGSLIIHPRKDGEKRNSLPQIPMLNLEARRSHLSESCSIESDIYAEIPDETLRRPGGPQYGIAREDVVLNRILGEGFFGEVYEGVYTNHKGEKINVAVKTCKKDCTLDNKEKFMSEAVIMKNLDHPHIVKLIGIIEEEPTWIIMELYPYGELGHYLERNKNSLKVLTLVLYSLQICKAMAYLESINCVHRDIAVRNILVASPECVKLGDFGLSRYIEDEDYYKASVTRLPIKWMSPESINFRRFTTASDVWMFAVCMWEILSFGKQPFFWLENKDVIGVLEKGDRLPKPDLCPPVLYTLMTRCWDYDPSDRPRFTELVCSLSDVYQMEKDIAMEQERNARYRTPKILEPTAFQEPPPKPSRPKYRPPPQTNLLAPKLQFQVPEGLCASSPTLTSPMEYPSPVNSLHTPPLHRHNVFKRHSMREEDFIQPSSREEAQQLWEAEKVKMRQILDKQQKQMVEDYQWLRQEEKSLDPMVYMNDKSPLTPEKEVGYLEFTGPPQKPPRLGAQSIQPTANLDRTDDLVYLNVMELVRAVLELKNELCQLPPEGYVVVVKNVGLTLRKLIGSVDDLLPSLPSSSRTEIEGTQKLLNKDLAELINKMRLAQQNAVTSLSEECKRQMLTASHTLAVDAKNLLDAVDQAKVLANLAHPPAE

[27] = target: Serine/threonine-protein kinase RIO1 (Homo sapiens) (UniProt Q9BRS2); settings: Compound concentration 1000.0 nM
Sequence of Serine/threonine-protein kinase RIO1 (Homo sapiens) (Q9BRS2 whole entry): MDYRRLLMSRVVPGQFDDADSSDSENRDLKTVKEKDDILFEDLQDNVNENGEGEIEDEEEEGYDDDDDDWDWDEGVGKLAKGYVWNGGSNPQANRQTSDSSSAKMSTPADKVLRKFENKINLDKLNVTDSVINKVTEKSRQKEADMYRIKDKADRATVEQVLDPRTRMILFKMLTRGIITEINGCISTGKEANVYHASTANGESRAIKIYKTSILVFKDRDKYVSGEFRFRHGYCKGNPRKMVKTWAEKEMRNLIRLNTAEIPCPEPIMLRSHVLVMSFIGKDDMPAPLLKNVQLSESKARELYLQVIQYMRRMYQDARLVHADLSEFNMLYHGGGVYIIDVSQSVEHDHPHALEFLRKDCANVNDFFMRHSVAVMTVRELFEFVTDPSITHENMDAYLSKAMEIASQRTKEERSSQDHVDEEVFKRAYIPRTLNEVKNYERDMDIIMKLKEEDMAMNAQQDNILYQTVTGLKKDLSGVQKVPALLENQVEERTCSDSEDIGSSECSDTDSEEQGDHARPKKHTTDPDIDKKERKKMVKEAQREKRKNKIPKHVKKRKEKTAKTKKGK

[28] = target: Receptor-interacting serine/threonine-protein kinase 2 (Homo sapiens) (UniProt O43353); settings: Compound concentration 1000.0 nM
[29] = target: Dual serine/threonine and tyrosine protein kinase (Homo sapiens) (UniProt Q6XUX3); settings: Compound concentration 1000.0 nM
[30] = target: Ribosomal protein S6 kinase alpha-5 (Homo sapiens) (UniProt O75582); settings: Compound concentration 1000.0 nM
Sequence of Ribosomal protein S6 kinase alpha-5 (Homo sapiens) (O75582 whole entry, looked up): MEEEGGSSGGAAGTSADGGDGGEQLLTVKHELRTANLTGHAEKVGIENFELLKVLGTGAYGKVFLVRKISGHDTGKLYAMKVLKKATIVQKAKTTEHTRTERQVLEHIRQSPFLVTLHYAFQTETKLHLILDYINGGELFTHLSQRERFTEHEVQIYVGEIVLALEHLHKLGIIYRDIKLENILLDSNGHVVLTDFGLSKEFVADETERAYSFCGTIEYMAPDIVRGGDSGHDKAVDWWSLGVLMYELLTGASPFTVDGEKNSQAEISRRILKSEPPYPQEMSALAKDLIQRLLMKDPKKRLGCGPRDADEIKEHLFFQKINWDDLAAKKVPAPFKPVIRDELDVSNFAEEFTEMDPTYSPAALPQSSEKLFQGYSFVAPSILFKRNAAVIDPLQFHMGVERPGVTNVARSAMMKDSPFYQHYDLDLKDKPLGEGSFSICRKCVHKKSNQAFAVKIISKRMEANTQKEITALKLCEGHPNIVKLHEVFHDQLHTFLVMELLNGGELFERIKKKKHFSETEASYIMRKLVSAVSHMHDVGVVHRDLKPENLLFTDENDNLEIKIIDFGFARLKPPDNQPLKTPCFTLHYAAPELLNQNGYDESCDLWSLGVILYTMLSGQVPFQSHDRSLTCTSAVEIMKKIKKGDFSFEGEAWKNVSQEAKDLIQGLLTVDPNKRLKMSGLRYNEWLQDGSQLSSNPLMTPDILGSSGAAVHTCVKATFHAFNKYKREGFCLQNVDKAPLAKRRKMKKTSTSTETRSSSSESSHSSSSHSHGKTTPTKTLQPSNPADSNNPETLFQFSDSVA

[31] = target: Ribosomal protein S6 kinase alpha-3 (Homo sapiens) (UniProt P51812); settings: Compound concentration 1000.0 nM
[32] = target: Uncharacterized serine/threonine-protein kinase SBK3 (Homo sapiens) (UniProt P0C264); settings: Compound concentration 1000.0 nM
[33] = target: SRSF protein kinase 1 (Homo sapiens) (UniProt Q96SB4); settings: Compound concentration 1000.0 nM
[34] = target: Tyrosine-protein kinase SYK (Homo sapiens) (UniProt P43405); settings: Compound concentration 1000.0 nM
[35] = target: TRAF2 and NCK-interacting protein kinase (Homo sapiens) (UniProt Q9UKE5); settings: Compound concentration 1000.0 nM
[36] = target: Serine/threonine-protein kinase ULK2 (Homo sapiens) (UniProt Q8IYT8); settings: Compound concentration 1000.0 nM
[37] = target: Kappa-type opioid receptor (Homo sapiens) (UniProt P41145); settings: Compound concentration 10.0 uM
Rattus norvegicus = organism: Rattus norvegicus; settings: Compound concentration 10.0 uM
[38] = target: Induced myeloid leukemia cell differentiation protein Mcl-1 (Homo sapiens, UniProt Q07820); assay: Time-resolved fluorescence energy transfer (TR-FRET) with MCL1
[39] = target: 5-hydroxytryptamine receptor 6 (Homo sapiens) (UniProt P50406); settings: Compound concentration 10.0 uM
[40] = target: D(4) dopamine receptor (Homo sapiens) (UniProt P21917); settings: Compound concentration 10.0 uM
[41] = target: Sodium-dependent noradrenaline transporter (Homo sapiens) (UniProt P23975); settings: Compound concentration 10.0 uM
[42] = target: Beta-2 adrenergic receptor (Homo sapiens) (UniProt P07550); settings: Compound concentration 10.0 uM
[43] = target: Beta-3 adrenergic receptor (Homo sapiens) (UniProt P13945); settings: Compound concentration 10.0 uM

Sequence of Sodium-dependent dopamine transporter (Q01959 whole entry): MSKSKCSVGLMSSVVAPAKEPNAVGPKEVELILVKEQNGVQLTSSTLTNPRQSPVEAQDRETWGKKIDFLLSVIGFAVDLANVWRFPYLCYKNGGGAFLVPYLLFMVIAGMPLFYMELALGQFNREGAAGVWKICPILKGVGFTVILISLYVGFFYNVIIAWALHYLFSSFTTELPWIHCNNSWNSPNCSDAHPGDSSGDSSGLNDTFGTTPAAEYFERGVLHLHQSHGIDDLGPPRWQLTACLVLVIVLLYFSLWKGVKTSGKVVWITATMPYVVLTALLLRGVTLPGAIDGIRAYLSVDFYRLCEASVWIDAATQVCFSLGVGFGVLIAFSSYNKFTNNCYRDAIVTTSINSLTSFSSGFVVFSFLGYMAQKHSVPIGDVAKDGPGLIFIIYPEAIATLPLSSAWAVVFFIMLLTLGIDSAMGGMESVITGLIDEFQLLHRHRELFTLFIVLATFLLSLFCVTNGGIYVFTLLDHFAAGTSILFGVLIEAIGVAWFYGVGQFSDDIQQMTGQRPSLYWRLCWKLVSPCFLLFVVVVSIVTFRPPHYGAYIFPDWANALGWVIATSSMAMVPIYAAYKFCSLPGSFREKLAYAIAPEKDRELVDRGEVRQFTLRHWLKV

Q: Which results are given for `O=C(NS(=O)(=O)c1ccc(NCC2CCOCC2)c([N+](=O)[O-])c1)c1ccc(N2CCN(Cc3ccc(C(F)(F)F)cc3-c3ccc(Cl)cc3)CC2)cc1Oc1cnc2[nH]ccc2c1` [A-1210227]?
A: pKi (D(3) dopamine receptor): 5.00; pKi ([1]; read-out: Ki): 5.01; Ki ([1]; read-out: pKi (converted)): 9.77 µM; pKi [2]: 5.00; EC50 (RS4-11): > 5 µM (not active); % Inhibition of Control Specific Binding (Mean n=2) [3]: 1.3%; % Inhibition of Control Specific Binding (Mean n=2) [4]: -42%; % Inhibition of Control Specific Binding (Mean n=2) [5]: -7.6%; % Inhibition of Control Specific Binding (Mean n=2) [6]: -14.5%; residual activity [7]: 84%; residual activity [8]: 74%; residual activity [9]: 89%; residual activity [10]: 97%; residual activity [11]: 100%; residual activity [12]: 100%; residual activity [13]: 92%; residual activity [14]: 100%; residual activity [15]: 100%; residual activity [16]: 96%; residual activity [17]: 100%; residual activity [18]: 84%; residual activity [19]: 97%; residual activity [20]: 98%; residual activity [21]: 84%; residual activity [22]: 99%; residual activity [23]: 97%; residual activity [24]: 86%; residual activity [25]: 100%; residual activity [26]: 100%; residual activity [27]: 100%; residual activity [28]: 100%; residual activity [29]: 94%; residual activity [30]: 95%; residual activity [31]: 100%; residual activity [32]: 100%; residual activity [33]: 100%; residual activity [34]: 99%; residual activity [35]: 100%; residual activity [36]: 100%; inhibition [37]: -0.08%; inhibition (Rattus norvegicus): 11.6%

Q: What does the source list for `CO[C@H]1CC[C@H](CNc2ccc(S(=O)(=O)NC(=O)c3ccc(N4CCN(CC5=C(c6ccc(Cl)cc6)CC(C)(C)CC5)CC4)cc3Oc3cnc4[nH]ccc4c3)cc2[N+](=O)[O-])CC1` [A-1211212]?
A: IC50 [38]: 2.05 µM (not active); % Inhibition of Control Specific Binding (Mean n=2) [3]: -4.4%; % Inhibition of Control Specific Binding (Mean n=2) [4]: -20.3%; % Inhibition of Control Specific Binding [5]: 1.9%; % Inhibition of Control Specific Binding (Mean n=2) [6]: 16.2%; residual activity [7]: 100%; residual activity [8]: 72%; residual activity [9]: 100%; residual activity [10]: 87%; residual activity [11]: 100%; residual activity [12]: 100%; residual activity [13]: 100%; residual activity [14]: 84%; residual activity [15]: 75%; residual activity [16]: 96%; residual activity [17]: 100%; residual activity [18]: 100%; residual activity [19]: 84%; residual activity [20]: 92%; residual activity [21]: 88%; residual activity [22]: 77%; residual activity [23]: 82%; residual activity [24]: 67%; residual activity [25]: 89%; residual activity [26]: 87%; residual activity [27]: 100%; residual activity [28]: 85%; residual activity [29]: 100%; residual activity [30]: 90%; residual activity [31]: 71%; residual activity [32]: 83%; residual activity [33]: 96%; residual activity [34]: 62%; residual activity [35]: 100%; residual activity [36]: 100%; inhibition [39]: -8.56%; inhibition [40]: -4.72%; inhibition [41]: 39.5%; inhibition [42]: 21.3%; inhibition [43]: -6.65%; inhibition (Rattus norvegicus): 41.5%
